Test results taken from US20040023884A1, “Biologically active peptides from functional domains of bactericidal/permeability-increasing protein and uses thereof” (priority 1993, published 2004).
“Also recorded” adds a separate entry of the source. Ends that are not written are not given here.

What was measured:
[1] = tested on: rough mutant E. coli J5 bacteria; experiment: Radial diffusion bactericidal assay, E. coli J5; format: cell-based; settings: for bactericidal activity (in words) / pmol added to well to achieve a 30 mm^2 bactericidal zone, E. coli J5: radial diffusion; for bactericidal activity (in words): E. coli J5; for pmol added to well to achieve a 30 mm^2 bactericidal zone, E. coli J5: PROBIT analysis, E. coli J5 (rough)
Outline: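 Wells received 5 or 10 μL of BPI fragment, pre-incubated 3 h at 37 °C. The underlayer agarose carried washed log-phase organisms at 4×10^6 CFU/mL.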

Staphylococcus aureus = experiment: Radial diffusion bactericidal assay, Staphylococcus aureus; format: cell-based; settings: for bactericidal activity (in words): FIG. 10e; for pmol added to well to achieve a 30 mm^2 bactericidal zone, S. aureus: radial diffusion, PROBIT analysis
[2] = 3H-heparin binding assay (affinity and capacity); settings: for Heparin Capacity: heparin bound at saturation; for Kd: read-out: Heparin Affinity
Outline: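 Peptide fragments were bound to PVDF-membrane wells and incubated with 3H-heparin in blocking buffer for 1 h at 4 °C. After washing, bound radioactivity was quantified by liquid scintillation counting, with BSA background subtracted; rBPI23 served as positive control.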

[3] = Lipid A binding competition with [125I]-rLBP; settings: for IC50: read-out: IC50 (inhibition of Lipid A binding of radiolabeled rLBP)
Experimental: A second binding assay was developed, wherein radiolabeled recombinant LPS binding protein ([^125I]-rLBP) was used instead of radiolabeled rBPI23 in competition experiments with BPI functional domain peptides BPI.2, BPI.3, BPI.4, BPI.5, BPI.7, BPI.13, BPI.14, BPI.29, BPI.30 and BPI.48, rBPI, rBPI21Δcys, and rLBP25 were included in these assays as controls. In these experiments, Lipid A was adsorbed to the wells at a concentration of 0.7 μg/mL in methanol. Incubation of radiolabeled rLBP (a total of 650,000 cpm and a specific activity of 3.45 μCi/μg) was performed for 2.5 hr at 37° C. in the presence of BPI peptides in a series of increasing concentrations. IC50 values (i.e., the concentration at which Lipid A binding of radiolabeled rLBP25 is inhibited to one half the value achieved in the absence of the peptide) are shown in accompanying Table XI.

RAW 264.7 cells = experiment: LPS neutralization cellular proliferation assay, RAW 264.7 cells; format: cell-based, mouse
Outline: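 Mouse RAW 264.7 cells were primed 24 h with 50U/mL mouse γ-interferon, then exposed about 15 h to E. coli O113 LPS in serum-free RPMI with or without BPI peptides at 25 ng/mL–50 μg/mL. Proliferation was quantified by [^3H]-thymidine uptake, 1 μCi/well, added at 5 h.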

[4] = tested on: E. coli 0111:B4 (smooth) bacteria; experiment: Radial diffusion bactericidal assay, E. coli 0111:B4; format: cell-based; settings: radial diffusion; for pmol added to well to achieve a 30 mm^2 bactericidal zone, E. coli O111:B4: PROBIT analysis, E. coli O111:B4 (smooth); for bactericidal activity (in words): E. coli 0111:B4

Row | Substance | bactericidal activity (in words) [1] | pmol added to well to achieve a 30 mm^2 bactericidal zone, E. coli J5 [1] | bactericidal activity (in words) (Staphylococcus aureus) | pmol added to well to achieve a 30 mm^2 bactericidal zone, S. aureus (Staphylococcus aureus) | heparin binding capacity (in words) [2] | Heparin Capacity [2] [ng] | Kd [2] [µM] | IC50 (inhibition of Lipid A binding of radiolabeled rLBP) [3] [µg/mL] | IC50 [3] [µM] | EC50 (peptide concentration at which the growth inhibitory effect of LPS was reversed by 50%) (RAW 264.7 cells) [µg/mL] | IC50 (peptide concentration at which RAW cell growth was inhibited by 50%) (RAW 264.7 cells) | pmol added to well to achieve a 30 mm^2 bactericidal zone, E. coli O111:B4 [4] | concentration above which appreciable bactericidal activity was shown [1] | bactericidal activity (in words) [4] | heparin binding activity (in words) [2]
1 | KSKVGWLIQLFHKKKSKVGWLIQLFHKK-NH2 (C-terminus assumed) [BPI.29] | greater bactericidal activity; also recorded: highly bactericidal | 441.60 pmol | moderate levels of activity | 15,508.98 pmol | extremely high heparin capacity | 463.7 | 0.427 | 0.44 | 0.13 | 0.1 ± 0.02 | 13.6 ± 0.4 µg/mL |  |  |  | 
2 | KSKVGWLIQLFHKK-NH2 (C-terminus assumed) [BPI.13] |  | 440.80 pmol | low levels of activity | 5,341.27 pmol |  | 369.1 | 0.985 | 1.7 | 1 | 1.9 ± 0.4 |  | 5,857.40 pmol | greater than 30 μg/mL |  | 
3 | KWKAQKRFLKKSKVGWLIQLFHKK-NH2 (C-terminus assumed) [BPI.30] | highest bactericidal activity; also recorded: highly bactericidal | 76.38 pmol | highest amount of bactericidal activity | 1,216.37 pmol | extremely high heparin capacity | 499.4 | 0.592 | 0.75 | 0.25 | 1.2 ± 1.1 | 10.5 ± 1.2 µg/mL | 608.20 pmol |  |  | 
4 | KWKAQKRFLKKWKAQKRFLK-NH2 (C-terminus assumed) [BPI.7] | exhibited bactericidal activity; also recorded: high levels of bactericidal activity; also recorded: highly bactericidal | 175.40 pmol | low levels of activity | 3,769.60 pmol | extremely high heparin binding capacity | 405.6 | 0.908 | 0.26 | 0.1 | >50 |  | 2,072.10 pmol |  | exhibited bactericidal activity | 
5 | NVGLKFSISNANIKISGKWKAQKRFLK [BPI.3] | exhibited bactericidal activity | 695.78 pmol |  |  |  | 264.5 | 0.781 | 0.75 | 0.25 |  |  | b (no detectable activity up to 5 μg/well) |  | exhibited bactericidal activity | moderate heparin binding activity
6 | IKISGKWKAQKRFLK [BPI.2] |  | 3,001.50 pmol |  | b (no detectable activity up to 5 μg/well) | low heparin binding capacity | 203.6 | 0.347 | 2.36 | 1.3 |  | — (No proliferation decrease up to 50 μg/ml) | b (no detectable activity up to 5 μg/well) |  | exhibited bactericidal activity | little or no heparin binding activity
7 | KWKAAARFLKKWKAAARFLK [BPI.48] | highly bactericidal | 42.40 pmol |  | 4,089.14 pmol | extremely high heparin capacity | 442.3 | 1.42 | 0.48 | 0.2 | 1.3 ± 0.9 | 5.0 ± 0.1 µg/mL | 253.54 pmol |  |  | 
